pIC50: −log10 of the molar value. Where two headings read alike, the source gives them in different places. Each block holds one compound with its values, some of them ahead of it.
Experiments:
[1] = system: NSCs; conditions: cited from earlier work
[2] = target: T1, Hes1 dimer formation (Hes1-Hes1 interaction) (Rattus norvegicus, UniProt Q04666); assay: Hes1-Hes1 interaction fluorescent plate assay (Hes1 dimer formation inhibition); type: binding; conditions: for remaining activity at 5 µM: 5 μM compound; for remaining activity at 100 µM: 100 μM compound
T1 construct: Glutathione-S-transferase (GST) fused rat Hes1(3–281) protein was expressed in Escherichia coli; GST (N, cleaved yes); GST (N); made in house; host or cells: Escherichia coli JM109 (pGEX-ratHes1 3-281)
T1 sequence (Q04666 3-281): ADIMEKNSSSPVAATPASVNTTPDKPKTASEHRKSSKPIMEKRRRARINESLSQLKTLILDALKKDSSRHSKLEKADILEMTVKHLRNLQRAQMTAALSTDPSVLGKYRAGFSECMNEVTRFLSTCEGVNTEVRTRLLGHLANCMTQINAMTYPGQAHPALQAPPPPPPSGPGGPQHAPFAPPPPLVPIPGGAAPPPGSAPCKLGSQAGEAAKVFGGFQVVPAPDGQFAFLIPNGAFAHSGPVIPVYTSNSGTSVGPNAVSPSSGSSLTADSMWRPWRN
Text: It is essential to inhibit undesired PPIs in drug development, and bioactivity-guided isolation using the inhibitory activity of PPIs is an attractive method to obtain effective inhibitors. However, currently there are only a few examples of such approaches using PPI assay systems[22],[23]. We previously developed a Hes1-Hes1 interaction fluorescent plate assay and reported the screening results of our natural products compound library (Fig. 2A)[24]. Glutathione-S-transferase (GST) fused rat Hes1(3–281) protein was expressed in Escherichia coli and purified rat Hes1 protein was immobilized on the bottom of 96 well plates. We prevented GST-GST interactions, which would result in false positives, by preparing GST-free Hes1 protein by GST cleavage with Turbo3C protease. After labeling Hes1 with Cy3, this florescent Hes1 protein was added to the wells of the above plate and incubated for 24 h at 4 °C. Hes1-Hes1 interaction was successfully detected as Cy3 fluorescence intensity. Using this assay system, we screened our 118 plant extract library and identified the MeOH extract of Psidium guajava leaves to contain naturally occurring compounds that inhibit Hes1 dimer formation. The MeOH extract (29.9 g) was fractionated using Diaion HP-20 with a MeOH-acetone solvent system to afford fractions 1A to 1C. Active fraction 1A (27.2 g) was suspended in 10% aq. MeOH and partitioned with hexane, EtOAc and BuOH to obtain hexane (1.1 g), EtOAc (5.7 g), BuOH (4.7 g) and aqueous (18.9 g) soluble fractions. Part of the active BuOH soluble fraction was subjected to ODS column chromatography and reverse-phase HPLC. Activity-guided separation yielded ten compounds (1–10; Fig. 3). The isolated compounds were identified as morin (1)[25], isoquercitrin (2)[26], methyl gallate (3)[27], (+)-catechin (4)[28],[29], dihydrophaseic acid (5)[30], quercetin (6)[26],[31], avicularin (7)[32],[33], gallic acid (8)[34], protocatechuic acid (9)[35] and 4-hydroxybenzoic acid (10)[36] based on comparisons of their spectral data with spectra in the literature.
Hes1-bound microplate wells[24] (Nunc Immobilizer^TM Amino Plate, Thermo) were incubated with 50 μL of Cy3-labeled-Hes1 in NET-N buffer (NET buffer (20 mM Tris-HCl, pH 7.5, 200 mM NaCl, 1 mM EDTA) containing 0.05% Nonidet® P-40, ca. 7 mg/L, dye/protein = 0.4) for 24 h at 4 °C. After removing the protein solution, the wells were washed twice with 200 μL of PBST, then each compound solution (in NET-N buffer, 50 μL) was added and the plates were incubated for 1 h at RT in the dark. The wells were washed twice with 200 μL of PBST, then dried under reduced pressure for 1 h in the dark. The Cy3 dye was excited at 544 nm and emission was monitored at 590 nm using a microplate reader (Fluoroskan Ascent, Thermo Labsystems, Vantaa, Finland). The assays were typically carried out in three individual wells, and the mean value and SD were calculated. The equilibrium between dimer formation between Cy3-Hes1/Cy3-Hes1 (in solution) and Cy3-Hes1/immobilized-Hes1 allowed the detection of Cy3-Hes1/immobilized-Hes1.
Typical procedure; Nunc Immobilizer^TM Amino 96 well Plate, white (Nalge Nunc Int., NY, USA) was used for immobilizing of Hes1. The micro plate wells were incubated with 100 µl of Hes1 (10 µg/mL in PBS) 2 h at 4 °C. After removing protein solution, the wells were incubated for 2 h at 4 °C with 100 µL of 10 mM ethanolamine (in 100 mM Na2CO3 buffer, pH 9.6) to block remaining activated units on the well. Then, wells were washed twice with 200 µL of PBST (PBS containing 0.05% Tween 20).
The Cy3 dye reagent was prepared as 1 vial of Cy3 monofunctional dye reagent (succinimidylester type; GE Healthcare, Buckinghamshire, UK) in DMSO (50 µL) and stored at -20 °C. Cy3-labeled Hes1 was prepared by mixing of protein in PBS with Cy3 dye reagent in DMSO (typically 0.6 µL of DMSO solution to 1 mL of 10 mg/L protein solution in PBS) for 30 min at 4 °C in the dark. […]

[3] = system: C17.2 mouse neural stem cells; assay: Neural stem cell differentiation assay (Tuj1/GFAP immunofluorescence staining); type: cell-based; conditions: C17.2 cells, 6 days, positive control
Text: We recently developed another protein-based screening method, the target protein oriented natural products isolation method (TPO-NAPI) using protein beads (Fig. 2B). Agalloside, inohanamine, α-mangostine, BE-14106, isomicromonolactam, staurosporin and linarin were isolated as Hes1 binding compounds using the TPO-NAPI method[15],[17]. Rat Hes1 (1–95) containing basic and helix-loop-helix domains was immobilized because the helix-loop-helix domain is known to be important for Hes1-Hes1 interaction; therefore, utilizing this domain in the beads method would likely be effective for screening Hes1 dimer inhibitors. GST-Hes1 immobilized beads were prepared by mixing freshly prepared GST-Hes1 protein with glutathione Sepharose 4B beads. GST-only beads were prepared as a control. After incubating the beads with plant MeOH extracts at 4 °C for 2 h, bound compounds were eluted by adding EtOH and heating at 100 °C for 3 min, then the eluted compounds were analyzed by HPLC. […] The MeOH extract (64.6 g) of Terminalia chebula bark was partitioned with hexane, EtOAc and BuOH to obtain hexane (1.5 g), EtOAc (3.6 g), BuOH (42.6 g), and aqueous (20.5 g) soluble fractions. The EtOAc fraction contained the target peak and was subjected to silica gel column chromatography to give eight fractions (1A-H). Fraction 1D contained the target peak and was separated by ODS column chromatography and reverse-phase HPLC to give compound 11 (0.4 mg). Compound 11 was identified as 4-O-(4″-O-galloyl-α-L-rhamnopyranosyl)ellagic acid by comparison of its NMR data with reported spectral data[37]. […] This is the strongest Hes1 dimer inhibitor reported to date. The ability of 11 to accelerate the differentiation of C17.2 mouse neural stem cells was evaluated (Fig. 5). C17.2 cells (2 × 10^5 cells/mL) were seeded in a poly-L-lysine-coated 24 well plates and incubated for 24 h, then the cells were treated with DMSO (control), 100 μM valproic acid (VPA), 5 μM retinoic acid (RA) (positive controls) or 11 (1 or 5 μM) for 6 days. A confocal microscope was used to obtain images of differentiated neural cells after immunostaining class III β-tubulin (Tuj1) in neurons, and glial fibrillary acidic protein (GFAP) in astrocytes and nuclei (TO-PRO-3). […] In contrast, the control dish containing cells treated with DMSO contained small number of neurons.
C17.2 cells were cultured in proliferation medium [DMEM (DS Pharma Biomedical Co., Ltd. Osaka, Japan) supplemented with 10% fetal bovine serum (Biowest, Nuaillé, France), 5% horse serum (Gibco, Life Technologies, Tokyo, Japan)]. Neural differentiation of C17.2 cells was initiated by transferring the cells to differentiation medium [Neurobasal Medium (Gibco) supplemented with 2% B-27 without vitamin A (Gibco), 1% antibiotic-antimycotic (Gibco)]. All cultures were maintained in a humidified incubator at 37 °C in 5% CO2/95% air.
C17.2 cells were dissociated using the proliferation medium 2 × 10^5 cells/mL on cover glass (MATSUNAMI GLASS) coated with poly-L-lysine and fibronectin/laminin. After incubation for 24 h, cells were washed with D-MEM and treated with individual compounds in differentiation medium for 6 days.
C17.2 cells were fixed with 4% paraformaldehyde in PBS for 20 min at room temperature (r.t.) and washed with 1% BSA in PBS three times. After blocking with 10% BSA in 0.3% Triton X-100 in PBS for 45 min at r.t., fixed cells were incubated with primary antibodies (anti-βIII-Tubulin; Neuronal Class III, Mouse-Mono, 1:400, R&D Systems^TM; anti-GFAP, 1:400, VERITAS) for 12 h at 4 °C. After washing three times with 1% BSA in PBS (500 μL/well), cells were incubated with secondary antibodies (Alexa Fluor® 488 goat anti-mouse IgG (H + L), 1:400, Life Technologies; Alexa Fluor® 555 goat ant-rabbit IgG (H + L), 1:200, Life Technologies) for 1 hr at r.t. in the dark. […]

[4] = 24 h, 0 μM = 100, read-out: Hes1 dimer formation rate (%)
[5] = 24 h, 10 μM compound, 0 μM = 100, read-out: Hes1 dimer formation rate (%)
[6] = 24 h, 25 μM compound, 0 μM = 100, read-out: Hes1 dimer formation rate (%)
[7] = Hes1 dimer formation inhibitory activity IC50, Cy3-labeled Hes1 / immobilized Hes1, compound 1 h at RT
[8] = Cy3-labeled Hes1 / immobilized Hes1, compound 1 h at RT, read-out: Hes1 dimer formation inhibitory activity IC50
[9] = 24 h, 50 μM compound, 0 μM = 100, read-out: Hes1 dimer formation rate (%)
[10] = 24 h, read-out: Hes1 dimer formation rate (%)

SMILES: C/C=C/C=C/C=C/[C@@H]1NCC[C@@H](O)[C@H]1C [inohanamine]
differentiation of NSCs to neurons [1]: accelerated the differentiation of NSCs to neurons

SMILES: O=C(O)c1cc(O)c(O)c(O)c1 [Compound 8, gallic acid]
remaining activity at 5 µM [2, 4]: 53.9%
remaining activity at 10 µM [2, 5]: 50.7%
remaining activity at 25 µM [2, 6]: 26.2%
pIC50 [2, 7]: 4.99

SMILES: O=c1c(O[C@@H]2O[C@H](CO)[C@@H](O)[C@H](O)[C@H]2O)c(-c2ccc(O)c(O)c2)oc2cc(O)cc(O)c12 [Compound 2, isoquercitrin]
remaining activity at 20 µM ([2]; 24 h, 20 μM compound, 0 μM = 100, read-out: Hes1 dimer formation rate (%)): 67.2%
remaining activity at 60 µM ([2]; 24 h, 60 μM compound, 0 μM = 100, read-out: Hes1 dimer formation rate (%)): 34.5%
remaining activity at 80 µM ([2]; 24 h, 80 μM compound, 0 μM = 100, read-out: Hes1 dimer formation rate (%)): 28.3%
pIC50 [2, 8]: 4.45

remaining activity at 5 µM [2, 4]: 74.6%
remaining activity at 25 µM [2, 6]: 51.3%
remaining activity at 50 µM [2, 9]: 23.8%
pIC50 [2, 8]: 4.58
SMILES: O=c1c(O[C@@H]2O[C@@H](CO)[C@H](O)[C@H]2O)c(-c2ccc(O)c(O)c2)oc2cc(O)cc(O)c12 [Compound 7, avicularin]

remaining activity at 5 µM [2, 4]: 68.4%
remaining activity at 10 µM [2, 5]: 54.3%
remaining activity at 25 µM [2, 6]: 39.2%
pIC50 [2, 8]: 4.90
SMILES: COC(=O)c1cc(O)c(O)c(O)c1 [Compound 3, methyl gallate]

SMILES: CCCC(CCC)C(=O)O [VPA, valproic acid, reference compound]
number of neurons ([3]; 100 μM): increased

SMILES: CC1=C(/C=C/C(C)=C/C=C/C(C)=C/C(=O)O)C(C)(C)CCC1 [RA, retinoic acid, reference compound]
number of neurons ([3]; 5 μM): increased

SMILES: O=C(O)c1cc(O)c(O)c(O)c1 [Commercially available gallic acid, gallic acid, reference compound]
pIC50 [2, 7]: 5.05

SMILES: O=C(O)c1ccc(O)c(O)c1 [Compound 9, protocatechuic acid]
remaining activity at 10 µM [2, 10]: 61.7%
remaining activity at 25 µM [2, 10]: 49.3%
remaining activity at 50 µM [2, 10]: 44.9%
pIC50 [2, 8]: 4.62

remaining activity at 25 µM [2, 6]: 95.4%
remaining activity at 50 µM [2, 9]: 79.2%
remaining activity at 100 µM [2, 4]: 78.8%
SMILES: Oc1cc(O)c2c(c1)O[C@H](c1ccc(O)c(O)c1)[C@@H](O)C2 [Compound 4, (+)-catechin]

SMILES: O=c1c(O)c(-c2ccc(O)c(O)c2)oc2cc(O)cc(O)c12 [Compound 6, quercetin]
remaining activity at 30 µM ([2]; 24 h, 30 μM compound, 0 μM = 100, read-out: Hes1 dimer formation rate (%)): 82.5%
remaining activity at 40 µM ([2]; 24 h, 40 μM compound, 0 μM = 100, read-out: Hes1 dimer formation rate (%)): 66.5%
remaining activity at 50 µM [2, 9]: 35.7%
pIC50 [2, 8]: 4.35

remaining activity at 25 µM [2, 6]: 125%
remaining activity at 50 µM [2, 9]: 122%
remaining activity at 100 µM [2, 4]: 127%
SMILES: CC(C=CC1(O)C2(C)COC1(C)CC(O)C2)=CC(=O)O (stereo not drawn) [Compound 5, dihydrophaseic acid]

remaining activity at 5 µM [2, 4]: 89.7%
remaining activity at 25 µM [2, 6]: 79.2%
remaining activity at 50 µM [2, 9]: 37.8%
pIC50 [2, 8]: 4.39
SMILES: O=c1c(O)c(-c2ccc(O)cc2O)oc2cc(O)cc(O)c12 [Compound 1, morin]

remaining activity at 25 µM [2, 6]: 58.8%
remaining activity at 50 µM [2, 9]: 50.4%
remaining activity at 100 µM [2, 4]: 39.8%
pIC50 [2, 8]: 4.29
SMILES: O=C(O)c1ccc(O)cc1 [Compound 10, 4-hydroxybenzoic acid]
